# Measurements taken from US20240285497A1, “METHOD FOR EVALUATING AN ABILITY OF A TEST SAMPLE TO TRIGGER A FOREIGN BODY REACTION IN THE SKIN, A METHOD FOR SCREENING A SUBSTANCE HAVING AN ABILITY TO INHIBIT A FOREIGN BODY REACTION IN THE SKIN, AND AN AGENT FOR INHIBITING A FOREIGN BODY REACTION IN THE SKIN” (priority 2021, published 2024).
# Tested on: xenobiotic responsive element (XRE)
# Experiment: Evaluation of ability to trigger a foreign body reaction using XRE-NLuc::HaCaT reporter cells (NLuc luminescence per viable cell)
# Assay type: cell-based, human
# Experimental: First, XRE-NLuc::HaCaT cells were suspended in a DMEM medium at the density of 1×10^5 cell/mL, and 100 μL of the thus obtained suspension was added to each well of white 96 well plates (Thermo Fisher Scientific, MA, U.S.A.; Catalogue No.: 136102) so that the number of the cells in each well was 10,000 cells/well. In accordance with a conventional method, the cells were incubated at 37° C., 5% CO2 for 24 hours. Thereafter, the DMEM medium was removed, and 100 μL of a new DMEM medium containing FICZ (6-Formylindolo[3,2-b]carbazole; CAS RN: 172922-91-7) as a test sample at a predetermined concentration was added, followed by further incubation for 24 hours at 37° C., 5% CO2. FICZ is known as a substance that triggers a foreign body reaction in which XRE is involved. Meanwhile, negative controls were prepared by adding 100 μL of a DMEM medium containing no FICZ instead of the DMEM medium containing FICZ, which were also incubated for 24 hours at 37° C., 5% CO2.
# After the above-described incubation for 24 hours, the number of cells in each well was counted by a colorimetric method based on the degradation of tetrazolium salt (WST-1) by mitochondrial dehydrogenase in viable cells. Specifically, 3 μL of Premix WST-1 (Product Name “Premix WST-1 Cell Proliferation Assay System”; Takara Bio Inc., Shiga, Japan; Catalogue No.: MK400) was added to each well of 96 well plates, and then the cells were cultured for 1 hour at 37° C., 5% CO2. Thereafter, 93 μL of cell culture supernatant was removed from each well to measure the absorbance of the supernatant in each well. The removed supernatants were transferred to transparent 96 well plates, and then the absorbance at 450 nm (A450) and, as a reference wavelength, the absorbance at 670 nm (A670) were measured using iMark microplate reader (Bio-Rad; Catalogue No.: 168-1130JA). A value (A450-A670) was obtained by subtracting the absorbance at 670 nm (A670) from the absorbance at 450 nm (A450). The relative viable cell count (%) was expressed as a relative value with the value (A450-A670) obtained for the negative control as 100%.
# Meanwhile, the expression level of the reporter protein was measured using samples left on the white 96-well plates after removing the supernatants for the viable cell count measurement. Briefly, 7 μL of Nano-Glo Luciferase Assay System (Promega; Catalogue No.: N110) was added to each well of the white 96-well plate. After 3 mins, the luminescence intensity obtained from the reporter protein produced by XRE-NLuc::HaCaT cells in each well was measured using GloMax Navigator Microplate Luminometer (Promega; Catalogue No.: GM2000). The obtained luminescence intensities were divided by the relative viable cell counts obtained by the above-described colorimetric method to obtain the expression level of the reporter protein (luminescence intensity) per unit number of viable cells.
# In FIG. 3, the luminescence intensity per unit number of viable cells obtained from XRE-NLuc::HaCaT cells incubated with each of the DMEM medium containing FICZ at different concentrations was shown as a relative value, with the luminescence intensity per unit number of viable cells obtained for the negative control set to 1. […] In the figure, “*” and “**” indicate statistically significant differences (p<0.05 and p<0.01, respectively) from the negative control (“FICZ Concentration 0 nM” in FIG. 3).
# The ability of each test sample to trigger a foreign body reaction was evaluated using XRE-NLuc::HaCaT cells in the same manner as in Experiment 1-2, except that I3C (Indole-3-carbinol, CAS RN: 700-06-1), ITE (2-(1′H-indole-3′-carbonyl)-thiazole-4-carboxylic acid methyl ester, CAS RN: 448906-42-1), and Indirubin (CAS RN: 479-41-4) were used instead of FICZ as test samples and the amount of each test sample added to the DMEM medium was appropriately changed.
substance,measurement,setting,value
"6-formylindolo[3,2-b] carbazole [FICZ]",luminescence intensity (reporter protein expression) per unit number of viable cells relative to negative control,"4 nM FICZ, 24 hours, XRE-NLuc::HaCaT cells",about three times higher
same,"luminescence intensity from XRE-NLuc::HaCaT cells, dependence on concentration","FICZ at different concentrations, 24 hours",increased along with the concentration of FICZ
same,EC50,"XRE-NLuc::HaCaT cells, reporter protein expression",12 nM
same,Present Experiment Maximum Effective concentration Max. Induction,"XRE-NLuc::HaCaT cells, concentration at which reporter expression was maximized",0.5 µM
